The text below walks through data of patent publication US20230167103A1 (Bayer Aktiengesellschaft, priority 2020, published 2023).

pIC50: −log10 of the molar value.

Usually pIC50 stands for the negative decadic logarithm of the IC50, by convention in mol/L.

T1 sequence (Q13574 with tags, fused parts or gaps): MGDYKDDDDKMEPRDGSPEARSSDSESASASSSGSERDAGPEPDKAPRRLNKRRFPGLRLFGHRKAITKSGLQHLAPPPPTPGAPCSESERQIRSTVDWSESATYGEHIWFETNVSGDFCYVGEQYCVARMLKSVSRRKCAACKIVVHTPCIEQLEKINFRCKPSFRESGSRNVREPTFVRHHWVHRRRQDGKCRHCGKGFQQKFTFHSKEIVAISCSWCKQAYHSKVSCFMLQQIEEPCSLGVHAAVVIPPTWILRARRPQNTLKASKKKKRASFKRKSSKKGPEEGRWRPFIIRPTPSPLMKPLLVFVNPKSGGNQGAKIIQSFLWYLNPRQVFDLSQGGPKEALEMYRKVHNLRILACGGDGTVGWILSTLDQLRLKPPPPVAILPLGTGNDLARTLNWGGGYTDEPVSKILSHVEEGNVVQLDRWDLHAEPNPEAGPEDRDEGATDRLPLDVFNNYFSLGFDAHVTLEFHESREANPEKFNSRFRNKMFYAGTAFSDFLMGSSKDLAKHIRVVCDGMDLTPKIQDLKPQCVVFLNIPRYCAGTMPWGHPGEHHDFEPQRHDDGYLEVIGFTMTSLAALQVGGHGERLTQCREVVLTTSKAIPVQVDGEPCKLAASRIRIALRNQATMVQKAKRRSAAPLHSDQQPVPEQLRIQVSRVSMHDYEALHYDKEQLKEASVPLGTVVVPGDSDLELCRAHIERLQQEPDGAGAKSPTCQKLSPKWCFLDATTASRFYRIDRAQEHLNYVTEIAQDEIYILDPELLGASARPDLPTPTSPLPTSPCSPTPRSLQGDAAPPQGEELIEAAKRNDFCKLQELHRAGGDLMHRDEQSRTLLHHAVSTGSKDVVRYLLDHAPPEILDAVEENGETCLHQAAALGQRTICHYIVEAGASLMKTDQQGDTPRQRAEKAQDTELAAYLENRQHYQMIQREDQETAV

The first assay has as its target T1, human DGKζ (Homo sapiens, UniProt Q13574).
T1 construct: made in house; host or cells: Sf9 insect cells, baculovirus
In words: Human DGKζ kinase activity inhibition assay (ADP-Glo). The format is biochemical. The following applies: example compounds; recombinant full-length human DGKζ, 1,2-dioleoyl-sn-glycerol 7 μM, ATP 55 μM, 20 min at 22° C.; read-out: IC50 values of examples in in vitro human DGKζ kinase activity inhibition assays. In outline: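 Enzyme was C-terminally FLAG-tagged full-length human DGKζ from baculovirus-infected insect cells, typically about 0.1 nM, with 1,2-dioleoyl-sn-glycerol in octyl-β-D-glucopyranoside micelles as substrate. ADP formed was detected by ADP-Glo luminescence; data normalised to no-inhibitor (0%) and no-enzyme (100%) controls.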
With `CC(C(N)=O)N(c1ccc(F)cc1)c1nc(N)c(C(=O)c2cc(C(=O)NC3CCC(C)(C)C3)no2)s1` (racemic) [Example 43, 5-[4-amino-2-(N-(2-amino-1-methyl-2-oxo-ethyl)-4-fluoro-anilino)thiazole-5-carbonyl]-N-(3,3-dimethylcyclopentyl)isoxazole-3-carboxamide], the pIC50 was 7.03.
For the compound `CC(C(N)=O)N(c1ccc(F)cc1)c1nc(N)c(C(=O)c2cc(C(=O)N3CCC3)no2)s1` (racemic) [Example 18, rac-2-(N-[4-amino-5-[3-(azetidine-1-carbonyl)isoxazole-5-carbonyl]thiazol-2-yl]-4-fluoro-anilino)propanamide], the pIC50 is 6.31.
For the compound `CC(C(N)=O)N(c1ccc(F)cc1)c1nc(N)c(C(=O)c2cc(-c3ccncc3)no2)s1` (racemic) [Example 8, rac-2-(N-[4-amino-5-[3-(4-pyridyl)isoxazole-5-carbonyl]thiazol-2-yl]-4-fluoro-anilino)propanamide], the pIC50 is 6.14.
Consider `CC(C(N)=O)N(c1ccc(F)cc1)c1nc(N)c(C(=O)c2cc(CN(C)C3CCCC3)no2)s1` (racemic) [Example 60, rac-2-(N-[4-amino-5-[3-[[cyclopentyl(methyl)amino]methyl]isoxazole-5-carbonyl]thiazol-2-yl]-4-fluoro-anilino)propanamide], for which the pIC50 is 7.24.
On to `CC(C(N)=O)N(c1ccc(F)cc1)c1nc(N)c(C(=O)c2nc(-c3ccccn3)no2)s1` (racemic) [Example 54, rac-2-(N-[4-amino-5-[3-(2-pyridyl)-1,2,4-oxadiazole-5-carbonyl]thiazol-2-yl]-4-fluoro-anilino)propanamide], for which the pIC50 was 6.51.
As to `CC(C(N)=O)N(c1ccc(F)cc1)c1nc(N)c(C(=O)c2cc(-c3cccnc3)no2)s1` (racemic) [Example 7, rac-2-(N-[4-amino-5-[3-(3-pyridyl)isoxazole-5-carbonyl]thiazol-2-yl]-4-fluoro-anilino)propanamide], the pIC50 was 6.39.
Regarding `CC(C(N)=O)N(c1ccc(F)cc1)c1nc(N)c(C(=O)c2cc(C(=O)NCCOC(C)(C)C)no2)s1` (racemic) [Example 26, rac-5-[4-amino-2-(N-(2-amino-1-methyl-2-oxo-ethyl)-4-fluoro-anilino)thiazole-5-carbonyl]-N-(2-tert-butoxyethyl)isoxazole-3-carboxamide], the pIC50 is 6.86.
The same measure, in the same setting: in the case of `CC(C(N)=O)N(c1ccc(F)cc1)c1nc(N)c(C(=O)c2nc(-c3ccc(Cl)cc3)no2)s1` (racemic) [Example 1, rac-2-(N-[4-amino-5-[3-(4-chlorophenyl)-1,2,4-oxadiazole-5-carbonyl]thiazol-2-yl]-4-fluoro-anilino)propanamide] it was 8.05; in that of `CC(C)Oc1cc(C(=O)c2sc(N(c3ccc(F)cc3)C(C)C(N)=O)nc2N)on1` (racemic) [Example 82, rac-2-(N-[4-amino-5-(3-isopropoxyisoxazole-5-carbonyl)thiazol-2-yl]-4-fluoro-anilino)propanamide], 7.31; in that of `CC(C(N)=O)N(c1ccc(F)cc1)c1nc(N)c(C(=O)c2cc(OC3CCC3)no2)s1` (racemic) [Example 79, rac-2-(N-[4-amino-5-[3-(cyclobutoxy)isoxazole-5-carbonyl]thiazol-2-yl]-4-fluoro-anilino)propanamide], 7.06.
Regarding `CC(C(N)=O)N(c1ccc(F)cc1)c1nc(N)c(C(=O)c2cc(C3CCCC3)no2)s1` (racemic) [Example 47, rac-2-(N-[4-amino-5-(3-cyclopentylisoxazole-5-carbonyl)thiazol-2-yl]-4-fluoro-anilino)propanamide], the pIC50 was 7.38.
Take `CC(C)c1noc(C(=O)c2sc(N(c3ccc(F)cc3)C(C)C(N)=O)nc2N)n1` (racemic) [Example 49, rac-2-(N-[4-amino-5-(3-isopropyl-1,2,4-oxadiazole-5-carbonyl)thiazol-2-yl]-4-fluoro-anilino)propanamide]: the pIC50 was 7.55.
For the compound `CC(C(N)=O)N(c1ccc(F)cc1)c1nc(N)c(C(=O)c2cc(-c3ccccc3)no2)s1` (single isomer, unassigned) [Example 3.2, 2-(N-[4-amino-5-(3-phenylisoxazole-5-carbonyl)thiazol-2-yl]-4-fluoro-anilino)propanamide], the pIC50 is 5.76.
Turning to `CC(C(N)=O)N(c1ccc(F)cc1)c1nc(N)c(C(=O)c2cc(-c3ccc(Cl)cc3Cl)no2)s1` (racemic) [Example 4, rac-2-(N-[4-amino-5-[3-(2,4-dichlorophenyl)isoxazole-5-carbonyl]thiazol-2-yl]-4-fluoro-anilino)propanamide], the pIC50 was 7.43.
In the case of `CC(C(N)=O)N(c1ccc(F)cc1)c1nc(N)c(C(=O)c2cc(C(=O)N[C@H]3C[C@H](F)C3)no2)s1` (mixture of isomers) [Example 42, 5-[4-amino-2-(N-(2-amino-1-methyl-2-oxo-ethyl)-4-fluoro-anilino)thiazole-5-carbonyl]-N-(trans-3-fluorocyclobutyl)isoxazole-3-carboxamide], the pIC50 is 6.84.
In the case of `CC(C(N)=O)N(c1ccc(F)cc1)c1nc(N)c(C(=O)c2cc(OCc3ccccc3)no2)s1` (racemic) [Example 2, rac-2-(N-[4-amino-5-(3-benzyloxyisoxazole-5-carbonyl)thiazol-2-yl]-4-fluoro-anilino)propanamide], the pIC50 was 7.57.
With `CC(C(N)=O)N(c1ccc(F)cc1)c1nc(N)c(C(=O)c2cc(CN3CC(F)C3)no2)s1` (racemic) [Example 73, rac-2-(N-[4-amino-5-[3-[(3-fluoroazetidin-1-yl)methyl]isoxazole-5-carbonyl]thiazol-2-yl]-4-fluoro-anilino)propanamide], the pIC50 was 6.49.
Same read-out and setting: in the case of `COCC(C)NC(=O)c1cc(C(=O)c2sc(N(c3ccc(F)cc3)C(C)C(N)=O)nc2N)on1` (racemic) [Example 36, 5-[4-amino-2-(N-(2-amino-1-methyl-2-oxo-ethyl)-4-fluoro-anilino)thiazole-5-carbonyl]-N-(2-methoxy-1-methyl-ethyl)isoxazole-3-carboxamide] it was 6.35.
On the same count and under the same terms, as for `CC(C(N)=O)N(c1ccc(F)cc1)c1nc(N)c(C(=O)c2cc(C(=O)N3CCCCC3)no2)s1` (racemic) [Example 27, rac-2-(N-[4-amino-5-[3-(piperidine-1-carbonyl)isoxazole-5-carbonyl]thiazol-2-yl]-4-fluoro-anilino)propanamide], the figure is 6.83; as for `CC(C(N)=O)N(c1ccc(F)cc1)c1nc(N)c(C(=O)c2cc(C(=O)NC3CC(F)(F)C3)no2)s1` (racemic) [Example 32, rac-5-[4-amino-2-(N-(2-amino-1-methyl-2-oxo-ethyl)-4-fluoro-anilino)thiazole-5-carbonyl]-N-(3,3-difluorocyclobutyl)isoxazole-3-carboxamide], 7.03; as for `CC(C(N)=O)N(c1ccc(F)c(F)c1)c1nc(N)c(C(=O)c2cc(C(=O)NC3(C)CCC3)no2)s1` (racemic) [Example 44, rac-5-[4-amino-2-(N-(2-amino-1-methyl-2-oxo-ethyl)-3,4-difluoro-anilino)thiazole-5-carbonyl]-N-(1-methylcyclobutyl)isoxazole-3-carboxamide], 7.23.
With `CC(C(N)=O)N(c1ccc(F)cc1)c1nc(N)c(C(=O)c2cc(C(=O)NC3CCC(F)(F)C3)no2)s1` (racemic) [Example 33, 5-[4-amino-2-(N-(2-amino-1-methyl-2-oxo-ethyl)-4-fluoro-anilino)thiazole-5-carbonyl]-N-(3,3-difluorocyclopentyl)isoxazole-3-carboxamide], the pIC50 is 7.32.
`CC(C(N)=O)N(c1ccc(F)cc1)c1nc(N)c(C(=O)c2cc(OC(F)F)no2)s1` (racemic) [Example 48, rac-2-(N-[4-amino-5-[3-(difluoromethoxy)isoxazole-5-carbonyl]thiazol-2-yl]-4-fluoro-anilino)propanamide]: the pIC50 was 7.14.
On the same count and under the same terms, in the case of `CC(C(N)=O)N(c1ccc(F)cc1)c1nc(N)c(C(=O)c2nc(C3CC3)no2)s1` (racemic) [Example 57, rac-2-(N-[4-amino-5-(3-cyclopropyl-1,2,4-oxadiazole-5-carbonyl)thiazol-2-yl]-4-fluoro-anilino)propanamide] it was 7.49; in that of `COc1ccccc1-c1cc(C(=O)c2sc(N(c3ccc(F)cc3)C(C)C(N)=O)nc2N)on1` (racemic) [Example 70, rac-2-(N-[4-amino-5-[3-(2-methoxyphenyl)isoxazole-5-carbonyl]thiazol-2-yl]-4-fluoro-anilino)propanamide], 7.57; in that of `Cc1cccc(-c2noc(C(=O)c3sc(N(c4ccc(F)cc4)C(C)C(N)=O)nc3N)n2)c1C` (racemic) [Example 56, rac-2-(N-[4-amino-5-[3-(2,3-dimethylphenyl)-1,2,4-oxadiazole-5-carbonyl]thiazol-2-yl]-4-fluoro-anilino)propanamide], 7.85.
For the compound `CC(C(N)=O)N(c1ccc(F)cc1)c1nc(N)c(C(=O)c2cc(C(=O)NC3CC3)no2)s1` (racemic) [Example 15, rac-5-[4-amino-2-(N-(2-amino-1-methyl-2-oxo-ethyl)-4-fluoro-anilino)thiazole-5-carbonyl]-N-cyclopropyl-isoxazole-3-carboxamide], the pIC50 was 6.25.
`CC(C(N)=O)N(c1ccc(F)cc1)c1nc(N)c(C(=O)c2cc(C(=O)N3CCOCC3)no2)s1` (racemic) [Example 13, rac-2-(N-[4-amino-5-[3-(morpholine-4-carbonyl)isoxazole-5-carbonyl]thiazol-2-yl]-4-fluoro-anilino)propanamide]: the pIC50 was 6.01.

Still in this assay, the particulars now being: intermediates (comparative, lacking the R2 alkyl-carboxamide group); same assay conditions; read-out: IC50 values of intermediates in in vitro human DGKζ kinase activity inhibition assays.
Regarding “rac-2-(N-[4-amino-5-[3-(pyrrolidine-1-carbonyl)isoxazole-5-carbonyl]thiazol-2-yl]-4-fluoro-anilino)propanamide [Example 19]”, the pIC50 was under 4.70.
